Results as given in patent publication US20100062465A1, “Detection of Histone Deacetylase Inhibition” (priority 2006, published 2010).

Test system: HDAC
Assay: Fluor de Lys fluorometric assay of HDAC activity in PC3 cells
Format: cell-based, human
Conditions: 24 h
Protocol: Briefly 20×10^3 cells/well were seeded in 96 well plates and incubated for 24 h with (a) 1 mM BLT (b) FSAHA at 2, 5, 10 μM (c) SAHA at 2, 5, 10 μM (d) FSAHA at 2, 5, 7, 8, 9, 10 μM in the presence of 1 mM BLT (e) FSAHA at 2, 5, 7, 8, 9, 10 μM in the presence of vehicle (DMSO). The Fluor de Lys substrate was then added for 1 h, medium removed, cells rinsed with PBS and incubated for 10 minutes with the Fluor-de-Lys developer, and fluorescence read at 460 nm using the Tecan microplate reader as above. Results were normalized to cell density as determined using the WST-1 assay in the same 96 well plate.

O=C(CCCCCCC(=O)Nc1ccccc1)NO [SAHA, suberoylanilide hydroxamic acid, reference compound]
HDAC activity (relative to controls) (2 μM): 84±10%
HDAC activity (relative to controls) (5 μM): 51±3%
HDAC activity (relative to controls) (10 μM): 29±3%
